Measured values published in US9957251B2 (Takeda Pharmaceutical Company Limited, priority 2014, dated 2018).

What was measured:
[1] = target: T1, CDK8/CycC (Homo sapiens, UniProt P49336); test: CDK8 inhibitory activity (TR-FRET, Kinase Tracer-236 displacement); format: binding; settings: 1 μM of the test compound; for inhibition at 1 µM: read-out: Percent inhibition of CDK8 activity (%)
T1 construct: purchased Carna Biosciences
Description: (§1) The compound of the present invention was evaluated for its CDK8 inhibitory activity and CDK19 inhibitory activity by the following method. […] The primary diluted solution was dispensed in the amount of 2 μL/well to a 384-well plate, and then, a mixed solution of Eu^3+ Cryptate conjugated mouse monoclonal antibody anti-glutathione S-transferase (Cisbio) diluted 267-fold with an assay buffer and 60 nM Kinase Tracer-236 (Life technologies) was added thereto at 2 μL/well. After the addition, each kinase solution (84 ng/mL CDK8/CycC (Carna Biosciences) diluted with an assay buffer used for CDK8 inhibitory activity measurement, and 87 ng/mL CDC2L6/CycC (Carna Biosciences) diluted with an assay buffer used for CDK19 inhibitory activity measurement) was further added thereto at 2 μL/well. After the addition, the plate was left standing at room temperature for 1 hour, and then, the fluorescence intensity (excitation wavelength 320 nm, fluorescence wavelength 615 nm, 665 nm, delay time 50 μsec) was measured using an EnVision plate reader (PerkinElmer).

[2] = target: T2, CDK19 (CDC2L6/CycC) (Homo sapiens, UniProt Q9BWU1); test: CDK19 inhibitory activity (TR-FRET, Kinase Tracer-236 displacement); format: binding; settings: 1 μM of the test compound; for inhibition at 1 µM: read-out: Percent inhibition of CDK19 activity (%)
T2 construct: purchased Carna Biosciences
T2 sequence (Q9BWU1 whole entry): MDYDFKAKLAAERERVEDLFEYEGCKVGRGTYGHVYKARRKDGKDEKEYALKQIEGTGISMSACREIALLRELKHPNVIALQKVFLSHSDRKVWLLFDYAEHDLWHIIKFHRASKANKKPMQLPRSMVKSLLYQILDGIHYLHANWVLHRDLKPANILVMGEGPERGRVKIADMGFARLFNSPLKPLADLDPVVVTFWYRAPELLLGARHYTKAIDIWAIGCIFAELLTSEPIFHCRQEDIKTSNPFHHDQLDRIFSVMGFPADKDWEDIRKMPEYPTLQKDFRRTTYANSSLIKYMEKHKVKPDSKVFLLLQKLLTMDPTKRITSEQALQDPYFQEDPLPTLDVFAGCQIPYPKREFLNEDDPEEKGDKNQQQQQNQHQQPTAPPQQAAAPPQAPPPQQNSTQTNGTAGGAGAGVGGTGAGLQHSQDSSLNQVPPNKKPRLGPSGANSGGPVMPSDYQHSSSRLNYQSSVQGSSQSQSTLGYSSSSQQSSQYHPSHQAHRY
T2 sequence (P24863 whole entry partner): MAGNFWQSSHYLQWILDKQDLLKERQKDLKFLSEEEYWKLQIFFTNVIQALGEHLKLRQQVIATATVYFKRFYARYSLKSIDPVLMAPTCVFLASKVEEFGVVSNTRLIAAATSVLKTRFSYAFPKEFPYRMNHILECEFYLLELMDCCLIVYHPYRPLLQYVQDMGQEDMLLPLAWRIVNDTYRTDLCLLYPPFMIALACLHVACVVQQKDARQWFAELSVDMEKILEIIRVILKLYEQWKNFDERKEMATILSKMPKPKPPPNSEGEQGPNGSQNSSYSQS
Description: as §1

[3] = tested on: human multiple myeloma RPMI8226 cells; test: Inhibitory activity against human multiple myeloma RPMI8226 cell growth (CellTiter-Glo); format: cell-based; settings: 1 μM of the test compound, cultured for 8 days; for inhibition at 1 µM: Homo sapiens, RPMI-8226, 192 h, read-out: Percent inhibition of RPMI8226 cell growth (%)
Description: The compound of the present invention was evaluated for its inhibitory activity against human multiple myeloma RPMI8226 cell growth by the following method.
A suspension of human multiple myeloma RPMI8226 cells (purchased from the Health Protection Agency) was inoculated at 40 μL (300 cells/well) to a 384-well plate and cultured at 37° C. for 1 day in a 5% CO2 incubator. After the culture, each test compound solution was added thereto at a test concentration of 1 μM using TECAN D300, and the cells were further cultured for 8 days. After the culture, CellTiter-Glo™ Luminescent Cell Viability Assay reagent (Promega) was added at 40 μL/well to a 384-well plate, and the amount of luminescence was measured using a luminometer. Inhibitory activity against human multiple myeloma RPMI8226 cell growth (percent inhibition (%)) of the test compound was calculated according to the following formula, which is based on the hypothesis that the amount of residual ATP reflects the number of cells. In this formula, 100% control represents the amount of luminescence from a well with only 0.1% DMSO added. Percent inhibition (%)=(1−(amount of luminescence of the test compound)÷(100% control))×100

T1 sequence (P49336 whole entry): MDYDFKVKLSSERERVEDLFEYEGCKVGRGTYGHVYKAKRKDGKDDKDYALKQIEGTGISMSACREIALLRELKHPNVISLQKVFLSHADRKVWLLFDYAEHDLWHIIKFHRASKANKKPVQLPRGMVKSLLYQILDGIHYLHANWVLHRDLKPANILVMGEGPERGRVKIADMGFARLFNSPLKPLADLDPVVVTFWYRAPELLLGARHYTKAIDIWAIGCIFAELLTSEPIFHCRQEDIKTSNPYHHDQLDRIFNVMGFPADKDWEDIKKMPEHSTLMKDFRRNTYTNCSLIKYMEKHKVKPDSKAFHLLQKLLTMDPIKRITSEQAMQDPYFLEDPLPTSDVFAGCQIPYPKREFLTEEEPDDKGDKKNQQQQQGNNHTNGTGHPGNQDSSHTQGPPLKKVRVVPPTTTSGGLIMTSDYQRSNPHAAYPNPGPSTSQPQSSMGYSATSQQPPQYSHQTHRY
T1 sequence (P24863 whole entry partner): as the sequence (P24863 whole entry partner) above

Row | inhibition at 1 µM [1] | inhibition at 1 µM [2] | Percent inhibition of CDK8 activity (%) ([1]; 1 µM) | Percent inhibition of CDK19 activity (%) ([2]; 1 µM) | SMILES | inhibition at 1 µM [3] | Percent inhibition of RPMI8226 cell growth (%) ([3]; 1 µM)
1 | 101% | 100% | – | – | COC1CN(Cc2ccc(NC(=O)/C=C/c3cncc(F)c3-c3cnn(C4CC4)c3)cc2)C1 [Example 345, (2E)-3-(4-(1-Cyclopropyl-1H-pyrazol-4-yl)-5-fluoropyridin-3-yl)-N-(4-((3-methoxyazetidin-1-yl)methyl)phenyl)acrylamide] | 63% | –
2 | 106% | 100% | – | – | Cn1cc(-c2c(F)cncc2/C=C/C(=O)Nc2ccc3c(c2)CN(CC(C)(F)F)C3)cn1 [Example 351, (2E)-N-(2-(2,2-difluoropropyl)-2,3-dihydro-1H-isoindol-5-yl)-3-(5-fluoro-4-(1-methyl-1H-pyrazol-4-yl)pyridin-3-yl)acrylamide] | 63% | –
3 | 87% | 101% | – | – | Cn1cnc2ccc(-c3c(F)cncc3/C=C/C(=O)Nc3ccc(CN4CC(F)(F)C4)cc3)cc21 [Example 358, (2E)-N-(4-((3,3-Difluoroazetidin-1-yl)methyl)phenyl)-3-(5-fluoro-4-(1-methyl-1H-benzimidazol-6-yl)pyridin-3-yl)acrylamide] | 67% | –
4 | 105% | 74% | – | – | O=C(/C=C/c1cnccc1-c1cnn(C2CC2)c1)Nc1ccc(CN2CC(F)(F)C2)cc1F [Example 370, (2E)-3-(4-(1-cyclopropyl-1H-pyrazol-4-yl)pyridin-3-yl)-N-(4-((3,3-difluoroazetidin-1-yl)methyl)-2-fluorophenyl)acrylamide] | 51% | –
5 | 101% | 96% | – | – | Cn1cnc2ccc(-c3c(F)cncc3/C=C/C(=O)Nc3ccc4c(c3)CN(CC(F)(F)F)C4)cc21 [Example 357, (2E)-3-(5-fluoro-4-(1-methyl-1H-benzimidazol-6-yl)pyridin-3-yl)-N-(2-(2,2,2-trifluoroethyl)-2,3-dihydro-1H-isoindol-5-yl)acrylamide] | 69% | –
6 | 103% | 98% | – | – | O=C(/C=C/c1cnccc1-c1cnn(C2CC2)c1)Nc1ccc2c(c1)CCN(CC(F)(F)F)C2 [Example 316, (2E)-3-(4-(1-Cyclopropyl-1H-pyrazol-4-yl)pyridin-3-yl)-N-(2-(2,2,2-trifluoroethyl)-1,2,3,4-tetrahydroisoquinolin-6-yl)acrylamide] | 49% | –
7 | – | – | 99% | 100% | O=C(/C=C/c1cnccc1-c1cnn(C2CC2)c1)Nc1ccc(CN2CC(F)(F)C2)cc1 [Example 376, (2E)-3-(4-(1-Cyclopropyl-1H-pyrazol-4-yl)pyridin-3-yl)-N-(4-((3,3-difluoroazetidin-1-yl)methyl)phenyl)acrylamide hemifumarate] | – | 70%
8 | 103% | 98% | – | – | Cc1noc(C)c1-c1ccc(NC(=O)/C=C/c2cnccc2-c2cnn(C3CC3)c2)c(F)c1 [Example 311, (2E)-3-(4-(1-cyclopropyl-1H-pyrazol-4-yl)pyridin-3-yl)-N-(4-(3,5-dimethyl-1,2-oxazol-4-yl)-2-fluorophenyl)acrylamide] | 58% | –
9 | 105% | 94% | – | – | Cn1cc(-c2ccncc2/C=C/C(=O)Nc2ccc3c(c2)CN(CC(F)F)C3)cn1 [Example 342, (2E)-N-(2-(2,2-difluoroethyl)-2,3-dihydro-1H-isoindol-5-yl)-3-(4-(1-methyl-1H-pyrazol-4-yl)pyridin-3-yl)acrylamide] | 63% | –

The next lines start with the compound.

Row | SMILES | inhibition at 1 µM [1] | inhibition at 1 µM [2] | Percent inhibition of CDK8 activity (%) ([1]; 1 µM) | Percent inhibition of CDK19 activity (%) ([2]; 1 µM) | inhibition at 1 µM [3] | Percent inhibition of RPMI8226 cell growth (%) ([3]; 1 µM)
10 | CC1CN(Cc2ccc(NC(=O)/C=C/c3cnccc3-c3cnn(C)c3)cc2)CCO1 (stereo not drawn) [Example 55, (2E)-N-(4-((2-methylmorpholin-4-yl)methyl)phenyl)-3-(4-(1-methyl-1H-pyrazol-4-yl)pyridin-3-yl)acrylamide] | 99% | 97% | – | – | 55% | –
11 | O=C(/C=C/c1cnccc1-c1cnn(CC2(F)CC2)c1)Nc1ccc(CN2CCOCC2)cc1 [Example 288, (2E)-3-(4-(1-((1-Fluorocyclopropyl)methyl)-1H-pyrazol-4-yl)pyridin-3-yl)-N-(4-(morpholin-4-ylmethyl)phenyl)acrylamide] | 99% | 101% | – | – | 57% | –
12 | O=C(/C=C/c1cnccc1-c1cnsc1)Nc1ccc(CN2CCOCC2)cc1 [Example 145, (2E)-N-(4-(Morpholin-4-ylmethyl)phenyl)-3-(4-(1,2-thiazol-4-yl)pyridin-3-yl)acrylamide] | 90% | 94% | – | – | 51% | –
13 | Cn1cc(-c2ccncc2/C=C/C(=O)Nc2ccc(CC(F)(F)F)cc2)cn1 [Example 276, (2E)-3-(4-(1-methyl-1H-pyrazol-4-yl)pyridin-3-yl)-N-(4-(2,2,2-trifluoroethyl)phenyl)acrylamide] | 99% | 92% | – | – | 60% | –
14 | Cn1cc(-c2ccncc2/C=C/C(=O)Nc2ccc3c(c2)CCN3)cn1 [Example 280, (2E)-N-(2,3-dihydro-1H-indol-5-yl)-3-(4-(1-methyl-1H-pyrazol-4-yl)pyridin-3-yl)acrylamide] | 97% | 96% | – | – | 58% | –
15 | CN1CCc2ccc(NC(=O)/C=C/c3cnccc3-c3cnn(C)c3)cc2C1 [Example 212, (2E)-3(4-(1-methyl-1H-pyrazol-4-yl)pyridin-3-yl)-N-(2-methyl-1,2,3,4-tetrahydroisoquinolin-7-yl)acrylamide] | 100% | 98% | – | – | 52% | –
16 | Cn1cc(-c2ccncc2/C=C/C(=O)Nc2ccc(Cn3cccn3)cc2)cn1 [Example 274, (2E)-3-(4-(1-methyl-1H-pyrazol-4-yl)pyridin-3-yl)-N-(4-(1H-pyrazol-1-ylmethyl)phenyl)acrylamide] | 102% | 97% | – | – | 53% | –
17 | Cn1cc(-c2ccncc2/C=C/C(=O)Nc2ccc3c(c2)OCO3)cn1 [Example 163, (2E)-N-(1,3-benzodioxol-5-yl)-3-(4-(1-methyl-1H-pyrazole-4-yl)pyridin-3-yl)acrylamide] | 96% | 94% | – | – | 53% | –
18 | O=C(/C=C/c1cnccc1-c1cncs1)Nc1ccc(CN2CCOCC2)cc1 [Example 195, (2E)-N-(4-(morpholin-4-ylmethyl)phenyl)-3-(4-(1,3-thiazol-5-yl)pyridin-3-yl)acrylamide] | 94% | 97% | – | – | 52% | –
19 | O=C(/C=C/c1cnccc1-c1cnn(CC2CC2)c1)Nc1ccc(CN2CCOCC2)cc1 [Example 45, (2E)-3-(4-(1-(Cyclopropylmethyl)-1H-pyrazol-4-yl)pyridin-3-yl)-N-(4-(morpholin-4-ylmethyl)phenyl)acrylamide] | 98% | 99% | – | – | 55% | –
20 | Cc1nn(C)cc1-c1ccncc1/C=C/C(=O)Nc1ccc(CCc2nnco2)cc1 [Example 19, (2E)-3-(4-(1,3-dimethyl-1H-pyrazol-4-yl)pyridin-3-yl)-N-(4-(2-(1,3,4-oxadiazol-2-yl)ethyl)phenyl)acrylamide] | 100% | 98% | – | – | 54% | –
21 | COC(C)c1ccc(NC(=O)/C=C/c2cnccc2-c2cnn(C3CC3)c2)cc1 (stereo not drawn) [Example 271, (2E)-3-(4-(1-cyclopropyl-1H-pyrazol-4-yl)pyridin-3-yl)-N-(4-(1-methoxyethyl)phenyl) acrylamide] | 102% | 93% | – | – | 62% | –
22 | Cn1cc(-c2ccncc2/C=C/C(=O)Nc2ccc(CN3CCOCC3)cc2F)cn1 [Example 41, (2E)-N-(2-Fluoro-4-(morpholin-4-ylmethyl)phenyl)-3-(4-(1-methyl-1H-pyrazol-4-yl)pyridin-3-yl)acrylamide] | 99% | 97% | – | – | 56% | –
23 | Cn1cc(-c2ccncc2/C=C/C(=O)Nc2ccc3c(c2)OCC3)cn1 [Example 116, (2E)-N-(2,3-dihydro-1-benzofuran-6-yl)-3-(4-(1-methyl-1H-pyrazol-4-yl)pyridin-3-yl)acrylamide] | 100% | 94% | – | – | 55% | –
